Activity, IC50 and inhibition data for one molecule are collected here from ChEMBL document CHEMBL5678804 (Cancer Cell, 2011).

By IC50 is commonly meant the concentration needed to halve the response being measured. A high value points to weaker potency in that assay.

Calls of active or inactive are those of the source. The calls are words filed in the database; no cut-off is given here.

Assay [1] concerns BaF3. Put plainly: Antileukemic activity against mouse BaF3 cells harbouring BCR-ABL1 T315I mutant non-transduced with 5-FU treated bone marrow xenografted in Balb/c mouse assessed as alteration in B-lymphoid leukemia at 60 mg/kg, po administered twice daily. The class given is functional, organism-based.
In assay [2] the target is Tyrosine-protein kinase CSK (Homo sapiens, UniProt P41240). As to the kind of experiment: Inhibition of human wild type CSK using PolyEY as substrate preincubated for 2 hrs followed by ATP addition and measured every 2 mins for […] by spectrophotometric analysis.
For the next assay, the target named is Ephrin type-B receptor 4 (Homo sapiens, UniProt P54760). As to the kind of experiment: Inhibition of human wild type EPHB4 using PolyEY as substrate preincubated for 2 hrs followed by ATP addition and measured every 2 mins for […] by spectrophotometric analysis.
Assay [3] deals with MAP kinase-interacting serine/threonine-protein kinase 2 (Homo sapiens, UniProt Q9HBH9). Put plainly: Inhibition of human wild type MNK2 using RB-S6P as substrate preincubated for 2 hrs followed by ATP addition and measured every 2 mins for […] by spectrophotometric analysis.
Assay [4] deals with Dual specificity protein kinase TTK (Homo sapiens, UniProt P33981). Put plainly: Inhibition of human wild type TTK using RBER-CHKtide as substrate preincubated for 2 hrs followed by ATP addition and measured every 2 mins for […] by spectrophotometric analysis.
In assay [5] the target is Activin receptor type-1-like (Homo sapiens, UniProt P37023). Put plainly: Inhibition of human wild type ALK1 using Casein as substrate preincubated for 2 hrs followed by ATP addition and measured every 2 mins for […] by spectrophotometric analysis.
The next assay addresses Aurora kinase B (Homo sapiens, UniProt Q96GD4). As to the kind of experiment: Inhibition of human wild type AuroraB using bio-4xCHKT as substrate preincubated for 2 hrs followed by ATP addition and measured every 2 mins for […] by spectrophotometric analysis.
Another assay has as its target Aurora kinase C (Homo sapiens, UniProt Q9UQB9). Put plainly: Inhibition of human wild type AuroraC using bio-4xCHKT as substrate preincubated for 2 hrs followed by ATP addition and measured every 2 mins for […] by spectrophotometric analysis.
The target of assay [6] is Megakaryocyte-associated tyrosine-protein kinase (Homo sapiens, UniProt P42679). Put plainly: Inhibition of human wild type CTK using PolyEY as substrate preincubated for 2 hrs followed by ATP addition and measured every 2 mins for […] by spectrophotometric analysis.
Assay [7] deals with Tyrosine-protein kinase JAK2 (Homo sapiens, UniProt O60674). As to the kind of experiment: Inhibition of human wild type JAK2 using Poly(Ala,Glu,Lys,Tyr)6:2:5:1 as substrate preincubated for 2 hrs followed by ATP addition and measured every 2 mins for […] by spectrophotometric analysis.
Assay [8] has as its target Serine/threonine-protein kinase MRCK alpha (Homo sapiens, UniProt Q5VT25). As to the kind of experiment: Inhibition of human wild type MRCK alpha using RB-S6P as substrate preincubated for 2 hrs followed by ATP addition and measured every 2 mins for […] by spectrophotometric analysis.
Assay [9] concerns the target Ribosomal protein S6 kinase alpha-6 (Homo sapiens, UniProt Q9UK32). Put plainly: Inhibition of human wild type RSK4 using RBER-GSK3([…] to […]) as substrate preincubated for 2 hrs followed by ATP addition and measured every 2 mins for […] by spectrophotometric analysis.
The target in assay [10] is Serine/threonine-protein kinase Sgk1 (Homo sapiens, UniProt O00141). Put plainly: Inhibition of human wild type SGK1 using RBER-GSK3([…] to […]) as substrate preincubated for 2 hrs followed by ATP addition and measured every 2 mins for […] by spectrophotometric analysis.
In assay [11] the target is Serine/threonine-protein kinase TAO1 (Homo sapiens, UniProt Q7L7X3). As to the kind of experiment: Inhibition of human TAOK1 preincubated for 2 hrs followed by ATP addition and measured every 2 mins for […] by spectrophotometric analysis.
Assay [12] deals with Serine/threonine-protein kinase VRK1 (Homo sapiens, UniProt Q99986). Put plainly: Inhibition of human wild type VRK1 using RBER-CHKtide as substrate preincubated for 2 hrs followed by ATP addition and measured every 2 mins for […] by spectrophotometric analysis.
Assay [13] addresses Signal transducer and activator of transcription 5A (Homo sapiens) (UniProt P42229). As to the kind of experiment: Inhibition of STAT5 phosphorylation in Ph+ B-ALL patient with […] mutation derived human Leukemia cell at 50 to 1000 nM by immunoblot analysis. Particulars: dose 50-1000 nM. It counts as cell-based. A general note: A western blot detects proteins with antibodies after separation by electrophoresis.

Assay [14] relates to BaF3. As to the kind of experiment: cells. Particulars: Mus musculus, BaF3, 72 h.

Chain of Serine/threonine-protein kinase TAO1 (Q7L7X3 whole entry): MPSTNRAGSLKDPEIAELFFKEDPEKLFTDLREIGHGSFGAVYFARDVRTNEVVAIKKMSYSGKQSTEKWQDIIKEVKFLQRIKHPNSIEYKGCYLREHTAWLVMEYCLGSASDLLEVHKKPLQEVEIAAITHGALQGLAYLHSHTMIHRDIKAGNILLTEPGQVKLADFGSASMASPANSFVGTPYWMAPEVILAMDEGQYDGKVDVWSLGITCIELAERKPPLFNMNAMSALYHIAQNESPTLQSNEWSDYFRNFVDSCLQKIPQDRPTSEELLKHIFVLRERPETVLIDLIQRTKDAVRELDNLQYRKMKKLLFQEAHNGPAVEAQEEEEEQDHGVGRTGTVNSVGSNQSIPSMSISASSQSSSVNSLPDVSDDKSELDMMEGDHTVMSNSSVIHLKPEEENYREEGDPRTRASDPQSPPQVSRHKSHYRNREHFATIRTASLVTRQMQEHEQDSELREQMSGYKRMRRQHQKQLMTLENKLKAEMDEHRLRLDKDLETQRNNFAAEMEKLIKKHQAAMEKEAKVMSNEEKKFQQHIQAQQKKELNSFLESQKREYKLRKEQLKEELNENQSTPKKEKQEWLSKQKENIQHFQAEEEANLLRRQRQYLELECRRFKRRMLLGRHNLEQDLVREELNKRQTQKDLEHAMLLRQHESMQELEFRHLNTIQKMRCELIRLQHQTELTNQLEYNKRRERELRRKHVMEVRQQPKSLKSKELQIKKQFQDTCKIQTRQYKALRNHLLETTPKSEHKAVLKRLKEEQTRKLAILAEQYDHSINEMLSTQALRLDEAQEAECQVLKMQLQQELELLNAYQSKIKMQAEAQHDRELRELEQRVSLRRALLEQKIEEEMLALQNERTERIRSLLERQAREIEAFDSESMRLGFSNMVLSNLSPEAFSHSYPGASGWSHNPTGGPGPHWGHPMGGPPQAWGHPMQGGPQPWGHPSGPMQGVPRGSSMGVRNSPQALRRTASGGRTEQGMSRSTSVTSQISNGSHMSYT
Chain of Dual specificity protein kinase TTK (P33981 whole entry): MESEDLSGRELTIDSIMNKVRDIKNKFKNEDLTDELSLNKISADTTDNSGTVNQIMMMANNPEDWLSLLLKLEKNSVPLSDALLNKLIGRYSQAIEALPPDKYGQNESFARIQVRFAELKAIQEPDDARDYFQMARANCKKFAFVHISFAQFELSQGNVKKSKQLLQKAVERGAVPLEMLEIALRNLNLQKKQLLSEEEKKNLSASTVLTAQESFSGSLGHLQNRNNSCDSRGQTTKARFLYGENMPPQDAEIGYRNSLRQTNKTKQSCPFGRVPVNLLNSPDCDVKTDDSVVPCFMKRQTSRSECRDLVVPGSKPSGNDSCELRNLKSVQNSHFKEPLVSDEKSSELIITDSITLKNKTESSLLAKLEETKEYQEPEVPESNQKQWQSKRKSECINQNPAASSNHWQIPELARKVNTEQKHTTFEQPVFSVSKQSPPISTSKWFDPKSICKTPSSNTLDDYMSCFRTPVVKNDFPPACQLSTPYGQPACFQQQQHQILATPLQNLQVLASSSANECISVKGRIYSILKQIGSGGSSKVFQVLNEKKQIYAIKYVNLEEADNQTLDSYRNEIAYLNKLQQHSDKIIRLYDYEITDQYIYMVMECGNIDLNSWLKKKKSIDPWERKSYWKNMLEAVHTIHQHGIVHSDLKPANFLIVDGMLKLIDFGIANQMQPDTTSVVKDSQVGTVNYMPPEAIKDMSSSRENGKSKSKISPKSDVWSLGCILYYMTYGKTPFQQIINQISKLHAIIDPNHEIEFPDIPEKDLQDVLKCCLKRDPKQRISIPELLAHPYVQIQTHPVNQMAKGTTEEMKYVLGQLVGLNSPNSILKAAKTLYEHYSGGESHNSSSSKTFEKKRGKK
Chain of Aurora kinase C (Q9UQB9 whole entry): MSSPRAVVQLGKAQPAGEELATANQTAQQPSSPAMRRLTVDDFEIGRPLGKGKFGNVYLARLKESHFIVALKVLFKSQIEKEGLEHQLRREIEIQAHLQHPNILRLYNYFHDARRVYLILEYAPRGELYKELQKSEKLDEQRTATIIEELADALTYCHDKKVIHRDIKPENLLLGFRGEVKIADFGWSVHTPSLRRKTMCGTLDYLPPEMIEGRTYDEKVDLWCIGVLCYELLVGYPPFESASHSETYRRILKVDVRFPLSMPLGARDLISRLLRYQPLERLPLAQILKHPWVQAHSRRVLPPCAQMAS
Chain of Serine/threonine-protein kinase VRK1 (Q99986 whole entry): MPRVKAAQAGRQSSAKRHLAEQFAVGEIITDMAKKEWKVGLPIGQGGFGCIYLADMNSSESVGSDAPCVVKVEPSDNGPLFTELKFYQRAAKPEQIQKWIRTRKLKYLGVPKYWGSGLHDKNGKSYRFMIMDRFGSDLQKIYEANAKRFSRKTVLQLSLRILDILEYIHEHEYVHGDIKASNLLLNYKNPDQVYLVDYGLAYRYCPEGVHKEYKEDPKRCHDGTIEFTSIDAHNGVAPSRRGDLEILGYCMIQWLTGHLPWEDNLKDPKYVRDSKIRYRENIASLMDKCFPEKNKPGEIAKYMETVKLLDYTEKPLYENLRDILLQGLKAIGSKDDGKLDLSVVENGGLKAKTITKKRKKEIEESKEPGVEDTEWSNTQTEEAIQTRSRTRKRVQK
Chain of Serine/threonine-protein kinase Sgk1 (O00141 whole entry): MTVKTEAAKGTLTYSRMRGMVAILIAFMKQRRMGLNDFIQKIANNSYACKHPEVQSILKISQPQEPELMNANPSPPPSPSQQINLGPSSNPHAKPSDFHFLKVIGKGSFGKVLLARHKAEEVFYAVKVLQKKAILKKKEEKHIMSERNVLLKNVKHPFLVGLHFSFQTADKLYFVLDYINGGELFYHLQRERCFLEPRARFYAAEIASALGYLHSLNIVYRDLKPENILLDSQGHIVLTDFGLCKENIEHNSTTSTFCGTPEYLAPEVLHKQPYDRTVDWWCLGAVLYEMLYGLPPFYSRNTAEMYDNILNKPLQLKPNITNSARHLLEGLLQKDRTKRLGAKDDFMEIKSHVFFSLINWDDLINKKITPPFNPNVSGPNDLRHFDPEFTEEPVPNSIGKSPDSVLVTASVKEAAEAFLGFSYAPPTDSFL
Chain of Aurora kinase B (Q96GD4 whole entry): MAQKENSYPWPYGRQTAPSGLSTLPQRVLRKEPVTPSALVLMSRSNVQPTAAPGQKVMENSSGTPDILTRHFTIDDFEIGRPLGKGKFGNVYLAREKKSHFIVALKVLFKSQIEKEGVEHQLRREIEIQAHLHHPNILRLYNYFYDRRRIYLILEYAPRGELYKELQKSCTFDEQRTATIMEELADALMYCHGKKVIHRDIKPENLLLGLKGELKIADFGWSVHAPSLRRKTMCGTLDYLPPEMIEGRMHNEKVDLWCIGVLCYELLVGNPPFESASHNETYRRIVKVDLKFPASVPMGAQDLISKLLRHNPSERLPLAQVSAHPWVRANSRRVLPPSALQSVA
Chain of Tyrosine-protein kinase JAK2 (O60674 whole entry): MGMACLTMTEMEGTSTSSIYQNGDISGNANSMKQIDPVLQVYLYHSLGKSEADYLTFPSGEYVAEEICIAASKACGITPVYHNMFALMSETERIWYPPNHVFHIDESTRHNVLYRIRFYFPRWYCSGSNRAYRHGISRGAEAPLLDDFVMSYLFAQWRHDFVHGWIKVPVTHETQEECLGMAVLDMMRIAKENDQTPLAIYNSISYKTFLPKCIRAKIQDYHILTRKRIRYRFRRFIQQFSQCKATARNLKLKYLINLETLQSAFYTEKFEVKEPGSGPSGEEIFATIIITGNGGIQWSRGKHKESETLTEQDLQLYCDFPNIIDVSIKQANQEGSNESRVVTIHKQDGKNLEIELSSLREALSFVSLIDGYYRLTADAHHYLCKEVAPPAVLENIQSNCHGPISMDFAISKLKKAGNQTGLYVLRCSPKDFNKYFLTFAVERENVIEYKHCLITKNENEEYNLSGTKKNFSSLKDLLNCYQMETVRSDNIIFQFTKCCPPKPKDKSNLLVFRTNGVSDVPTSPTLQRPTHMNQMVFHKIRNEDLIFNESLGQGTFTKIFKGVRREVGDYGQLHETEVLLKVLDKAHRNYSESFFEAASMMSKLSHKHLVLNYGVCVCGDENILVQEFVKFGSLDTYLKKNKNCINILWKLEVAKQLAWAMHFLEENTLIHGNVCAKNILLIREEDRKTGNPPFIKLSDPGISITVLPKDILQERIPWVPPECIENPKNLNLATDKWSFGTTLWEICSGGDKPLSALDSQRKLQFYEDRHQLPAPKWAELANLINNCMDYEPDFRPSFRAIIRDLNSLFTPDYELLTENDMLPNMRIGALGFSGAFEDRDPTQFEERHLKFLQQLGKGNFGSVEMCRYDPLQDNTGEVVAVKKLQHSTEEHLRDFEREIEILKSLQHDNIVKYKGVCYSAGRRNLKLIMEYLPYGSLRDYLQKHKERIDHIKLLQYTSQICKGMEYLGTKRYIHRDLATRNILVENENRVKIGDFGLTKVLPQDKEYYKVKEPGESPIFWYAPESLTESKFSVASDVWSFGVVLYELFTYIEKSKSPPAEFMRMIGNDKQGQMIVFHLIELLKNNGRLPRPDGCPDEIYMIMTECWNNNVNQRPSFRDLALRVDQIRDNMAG
Chain of Activin receptor type-1-like (P37023 whole entry): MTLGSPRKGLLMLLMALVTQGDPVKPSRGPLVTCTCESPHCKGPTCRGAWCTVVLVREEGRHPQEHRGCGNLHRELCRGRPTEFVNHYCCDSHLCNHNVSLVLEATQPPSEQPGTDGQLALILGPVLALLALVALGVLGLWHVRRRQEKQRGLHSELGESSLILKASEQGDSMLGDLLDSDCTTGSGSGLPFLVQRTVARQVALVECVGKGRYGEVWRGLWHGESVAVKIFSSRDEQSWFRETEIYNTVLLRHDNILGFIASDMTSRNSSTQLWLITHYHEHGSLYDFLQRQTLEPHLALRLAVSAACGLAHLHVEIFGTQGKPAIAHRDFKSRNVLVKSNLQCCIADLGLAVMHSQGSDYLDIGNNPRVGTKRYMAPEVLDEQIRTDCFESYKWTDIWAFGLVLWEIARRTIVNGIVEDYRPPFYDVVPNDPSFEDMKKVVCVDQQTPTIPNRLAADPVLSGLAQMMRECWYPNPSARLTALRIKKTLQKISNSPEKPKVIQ

In the case of `CNC(=O)c1cc(Oc2ccc(NC(=O)Nc3cc(C(C)(C)C)nn3-c3ccc4ncccc4c3)c(F)c2)ccn1` [REBASTINIB], in the assay with BaF3 [1], the outcome was Active. Besides, the IC50 in assay [2] was 25 nM; against Ephrin type-B receptor 4 it was 64 nM; in assay [3] it was 400 nM; in assay [4], 290 nM; in assay [5], greater than 1000 nM; against Aurora kinase B it was greater than 1000 nM. The IC50 (against Aurora kinase C; in [6]; in [7]; in [8]; in assay [9]; in [10]) was greater than 1000 nM in each case. The 50% inhibitory concentration (IC50) was greater than 1000 nM in assay [11], greater than 1000 nM in assay [12] and 6 nM in the assay with BaF3 [14]. Besides, the inhibition result in assay [13] was “Active”.
